Data as given in patent US9487538B2, “Two-carbon linked artemisinin-derived trioxane dimers” (THE JOHNS HOPKINS UNIVERSITY, priority 2013, dated 2016).

Key:
P. berghei ANKA strain = experiment: animal or person; type: in vivo; conditions: for average survival time of all mice receiving the compound: over both experiments, artemether: combination therapy groups
Protocol: Nearly all of the two-carbon linked dimer analogs were evaluated in Plasmodium berghei infected mice using a 60-day survival study. Each trioxane (0.64 mg) and mefloquine hydrochloride (1.92 mg) were dissolved in 100 μL of 7:3 Tween:EtOH mixture, and the mixture was further diluted with 965 μL of water (total volume of 1065 μL). Twenty-four hours after infection with P. berghei ANKA strain (2×10^7 parasitized erythrocytes), each of four 5-week old C57BL/6J mice (Jackson Laboratory, weighing approximately 20 g each) received 200 μL of the trioxane solution via oral gavage, corresponding to a dose of 6 mg/kg of trioxane and 18 mg/kg of mefloquine hydrochloride. Blood parasitemia levels and duration of animal survival as compared to survival time of animals receiving no drug were monitored, both being widely accepted measures of a drug's antimalarial efficacy.
A second mouse experiment was initiated to further evaluate several of the lead compounds. An alternative adjuvant to establish a broader understanding of the efficacy of these compounds also was evaluated. […] As summarized in Table 2, all of the lead compounds outperformed the drug artemether (4b), which prolonged survival to an average of 38.5 days and 19.0 days in combination with mefloquine and lumefantrine, respectively. One mouse receiving dimer methyl oxime Z-29 and mefloquine died early in the experiment (day 16) while the other three lived to day 60, an average of 49.0 days. Dimer methyl oxime Z-29 was, however, was marginally effective in combination with lumefantrine (26.3 day average) and not effective as a monotherapy, with an average survival time (8.3 days) similar to that of infected mice receiving no drug (8.8 days). Dimer allyl oxime 30 was efficacious in all three groups, extending survival time to 49.0 days, 41.3 days, and 46.8 days in combination with mefloquine, lumefantrine, or as a monotherapy, respectively. […] One mouse receiving mefloquine combination died at an extended time point (35 days) while the other three survived the entire 60 days, an average of 53.8 days. All four mice receiving lumefantrine combination survived the entire 60 days. […] The monotherapy dose prolonged survival time to 46.8 days, similar to that of dimer allyl oxime 30.

P388 leukemia = conditions: NCI Report, tested on 25 Oct. 1983; cited from earlier work
[1] = system: cell line panels consisting of 60 lines (nine disease-related subpanels); conditions: 60 cell lines; cited from earlier work
[2] = Table 2, trioxane 6 mg/kg + mefloquine 18 mg/kg
[3] = Table 1, trioxane 6 mg/kg + Mef-HCl 18 mg/kg, single oral dose
[4] = Table 1, trioxane 6 mg/kg + Mef-HCl 18 mg/kg, determined on day 3 post infection
[5] = Table 2, trioxane 6 mg/kg + lumefantrine 18 mg/kg
[6] = Table 2, trioxane 150 mg/kg, adjuvant none (monotherapy)
[7] = first experiment, trioxane 6 mg/kg + mefloquine hydrochloride 18 mg/kg, four mice

SMILES | % parasitemia suppression (P. berghei ANKA strain; [2]) | survival after infection avg (P. berghei ANKA strain; [2]) | survival after infection avg (P. berghei ANKA strain; [3]) | % parasitemia suppression (P. berghei ANKA strain; [4]) | other results
CO/N=C(\C[C@H]1O[C@H](OC)[C@@]23OC(C)C2C(C)C[C@H]3[C@H]1C)[C@H]1O[C@H](OC)[C@@]23OC(C)C2C(C)C[C@H]3[C@H]1C (stereo partly drawn) [E-29, Dimer O-Methyl Oxime] | >99.9% | 37.0 days | – | – | –
CC(=O)O/N=C(/C[C@H]1O[C@@H]2O[C@@]3(C)CC[C@H]4[C@H](C)CC[C@@H]([C@H]1C)[C@@]24OO3)[C@H]1O[C@@H]2O[C@@]3(C)CC[C@H]4[C@H](C)CC[C@@H]([C@H]1C)[C@@]24OO3 [compound 36, dimer oxime acetate] | – | – | 27.3 days | >99.9% | –
C[C@H]1[C@@H](/C(C[C@H]2O[C@@H]3O[C@@]4(C)CC[C@H]5[C@H](C)CC[C@@H]([C@H]2C)[C@@]35OO4)=N\OC(C)(C)C)O[C@@H]2O[C@@]3(C)CC[C@H]4[C@H](C)CC[C@@H]1[C@@]24OO3 [compound 33, dimer tert-butyl oxime] | >99.9% | 23.8 days | – | – | –
C#CCO/N=C(/C[C@H]1O[C@@H]2O[C@@]3(C)CC[C@H]4[C@H](C)CC[C@@H]([C@H]1C)[C@@]24OO3)[C@H]1O[C@@H]2O[C@@]3(C)CC[C@H]4[C@H](C)CC[C@@H]([C@H]1C)[C@@]24OO3 [compound 34, dimer propargyl oxime] | >99.9% | 53.8 days | 60.0 days | >99.9% | inhibition in vivo at 6 mg/kg (P. berghei ANKA strain; Plasmodium berghei, in Mus musculus, po, Table 2, as printed: trioxane 6 mg/kg, adjuvant none, dose 18, read-out: % parasitemia suppression): > 99.9%; survival after infection avg (P. berghei ANKA strain; Table 2, as printed: trioxane 6 mg/kg, adjuvant none, dose 18): 46.8 days; % parasitemia suppression (P. berghei ANKA strain; [5]): >99.9%; survival after infection avg (P. berghei ANKA strain; [5]): 60.0 days; survival after infection (P. berghei ANKA strain; Table 2, trioxane 6 mg/kg + lumefantrine 18 mg/kg, single oral dose): 60 days; survival after infection avg (P. berghei ANKA strain; [6]): 46.8 days; cure of mice (P. berghei ANKA strain; [7]): complete cures of all four mice; average survival time of all mice receiving the compound (P. berghei ANKA strain): 55.1 days; cure of mice (P. berghei ANKA strain; two separate experiments, in combination with two different adjuvants (mefloquine and lumefantrine)): complete cure
CO/N=C(/C[C@H]1O[C@H](OC)[C@@]23OC(C)C2C(C)C[C@H]3[C@H]1C)[C@H]1O[C@H](OC)[C@@]23OC(C)C2C(C)C[C@H]3[C@H]1C (stereo partly drawn) [Z-29, Dimer O-Methyl Oxime] | >99.9% | 49.0 days | 60.0 days | >99.9% | inhibition in vivo at 150 mg/kg (P. berghei ANKA strain; Plasmodium berghei, in Mus musculus, po, Table 2, trioxane 150 mg/kg, adjuvant none (monotherapy), read-out: % parasitemia suppression): 98%; % parasitemia suppression (P. berghei ANKA strain; [5]): >99.9%; survival after infection avg (P. berghei ANKA strain; [5]): 26.3 days; survival after infection avg (P. berghei ANKA strain; [6]): 8.3 days; cure of mice (P. berghei ANKA strain; [7]): complete cures of all four mice
C[C@@H]1CC[C@H]2[C@@H](C)C(=O)O[C@@H]3O[C@@]4(C)CC[C@@H]1[C@]32OO4 [artemisinin] | – | – | – | – | activity against P388 leukemia (P388 leukemia): inactive; anticancer activity [1]: modest anticancer activity
CO[C@H]1O[C@@H]2O[C@@]3(C)CC[C@H]4[C@H](C)CC[C@@H]([C@H]1C)[C@@]24OO3 [artemether (4b), artemether, reference compound] | >99.9% | 38.5 days | 40.0 days | >99.9% | % parasitemia suppression (P. berghei ANKA strain; [5]): >99.9%; survival after infection avg (P. berghei ANKA strain; [5]): 19.0 days; average survival time of all mice receiving the compound (P. berghei ANKA strain): 31.7 days
C[C@H]1[C@@H](/C(C[C@H]2O[C@@H]3O[C@@]4(C)CC[C@H]5[C@H](C)CC[C@@H]([C@H]2C)[C@@]35OO4)=N\OCC2CC2)O[C@@H]2O[C@@]3(C)CC[C@H]4[C@H](C)CC[C@@H]1[C@@]24OO3 [compound 31, dimer O-methylcyclopropyl oxime] | >99.9% | 41 days | – | – | –
C[C@H]1[C@@H](/C(C[C@H]2O[C@@H]3O[C@@]4(C)CC[C@H]5[C@H](C)CC[C@@H]([C@H]2C)[C@@]35OO4)=N\OC(=O)N(C)C)O[C@@H]2O[C@@]3(C)CC[C@H]4[C@H](C)CC[C@@H]1[C@@]24OO3 [compound 35, dimer oxime dimethylcarbamate] | – | – | 51.8 days | >99.9% | –
C[C@H]1[C@@H](C(=O)C[C@H]2O[C@@H]3O[C@]4(C)CC[C@H]5[C@H](C)CC[C@@H]([C@H]2C)[C@@]35OO4)O[C@@H]2O[C@]3(C)CC[C@H]4[C@H](C)CC[C@@H]1[C@@]24OO3 [compound 24, Artemisinin Two-Carbon Linked Dimer Ketone] | – | – | 48.3 days | >99.9% | –
CO[C@H]1O[C@H](/C(C[C@H]2O[C@H](OC)[C@@]34OC(C)C3C(C)C[C@H]4[C@H]2C)=N\O)[C@H](C)[C@@H]2CC(C)C3C(C)O[C@@]312 (stereo partly drawn) [compound 28, Dimer Oxime] | – | – | 52.5 days | >99.9% | –
